Measured values: patent US20210369667A1, “COMPOSITIONS AND METHODS FOR THE PREVENTION AND TREATMENT OF RADIATION DERMATITIS, ECZEMA, BURNS, WOUNDS AND CERTAIN CANCERS” (VIZURI HEALTH SCIENCES CONSUMER HEALTHCARE, INC., priority 2019, published 2021)
Blank lines part the entries; values can stand above or below the compound they belong to.

Tests used:
[1] = Apigenin solubility in NaOH solutions; type: physicochemical; conditions: sodium hydroxide solution, aqueous buffer
Source text: A good solubility of polyphenols in the alkaline medium is very important in generating well hydrated polyphenols upon acidification. The regenerated hydrated products mix well in the formulations. Sodium hydroxide solution is an effective solubilizer at different concentrations for apigenin, a polyphenol flavonoid. This is exemplified in the table below— Apigenin Solubility in NaOH Solutions [table]

[2] = test system: acute radiation dermatitis; conditions: 49 patients; prophylactic MMF with emollient cream vs emollient cream alone; cited from earlier work
[3] = SEM particle morphology of hydrated apigenin; type: physicochemical
Source text: Scanning Electron Microscopy (SEM) images of the hydrated apigenin, and unprocessed apigenin powder were collected to determine particle morphology details. […] The chemical composition as determined by FTIR and Raman Spectroscopy, could not detect any chemical differences in the unprocessed apigenin and the hydrated apigenin. […] The hydrated apigenin was composed of fibers with diameters of 30-500 nm (a range of being nano-fibers) with aspect ratios measuring greater than 20.

solubility ([1]; NaOH Molarity 0.75 moles/liter): > 150 mg/mL
solubility ([1]; NaOH Molarity 1.015 moles/liter): > 200 mg/mL
solubility ([1]; NaOH Molarity 2.0 moles/liter): > 300 mg/mL
SMILES: O=c1cc(-c2ccc(O)cc2)oc2cc(O)cc(O)c12 [Apigenin]

SMILES: C[C@@H]1C[C@H]2[C@@H]3CCC4=CC(=O)C=C[C@]4(C)[C@@]3(Cl)[C@@H](O)C[C@]2(C)[C@@]1(OC(=O)c1ccco1)C(=O)CCl [MMF, mometasone furoate]
acute radiation dermatitis [2]: significantly decreased acute radiation dermatitis

aspect ratios of fibers [3]: greater than 20
fiber diameters [3]: 30-500 nm
SMILES: O=c1cc(-c2ccc(O)cc2)oc2cc(O)cc(O)c12 [hydrated apigenin]
